Test results published in ChEMBL document CHEMBL4680353, “Synthesis, anticancer activity and molecular docking studies of N-deacetylthiocolchicine and 4-iodo-N-deacetylthiocolchicine derivatives” (Bioorg Med Chem, 2021).
Calls of active or inactive are those of the source. The calls are words filed in the database; no cut-off is given here.

Tests used:
[1] = Antiproliferative activity against human ALL5 cells incubated for 120 hrs followed by MTT addition further incubated for 48 hrs; format: functional, cell-based
A549 = test: Antiproliferative activity against human A549 cells incubated for 72 hrs by SRB assay; format: functional, cell-based; conditions: A549, 72 h
MCF7 = test: Antiproliferative activity against human MCF-7 cells incubated for 72 hrs by SRB assay; conditions: MCF7, 72 h
LoVo = test: Antiproliferative activity against human LoVo cells incubated for 72 hrs by SRB assay; format: functional, cell-based
cells = format: functional, cell-based; conditions: Homo sapiens, LoVo/DX, 72 h
[2] = Resistance index, ratio of IC50 for antiproliferative activity against human Lovo/DX cells to IC50 for antiproliferative activity against human LoVo cells; format: functional
BALB/3T3 = test: Antiproliferative activity against mouse BALB/3T3 cells incubated for 72 hrs by SRB assay; format: ADME, cell-based; conditions: BALB/3T3, 72 h
ALL5 [3] = test: Induction of apoptosis in human ALL-5 cells assessed as increase in PARP cleavage at 45 nM incubated for 48 hrs by Western blot analysis relative to control; format: functional, cell-based
ALL5 [4] = test: Induction of apoptosis in human ALL-5 cells assessed as increase in PARP cleavage at 0.2 uM incubated for 24 hrs by Western blot analysis relative to control
ALL5 [5] = test: Cell cycle arrest in human ALL-5 cells assessed as accumulation at sub-G1 phase after 24 hrs at 5 times of IC50 by propidium iodide staining-based flow cytometric analysis relative to control; format: functional
ALL5 [6] = test: Induction of apoptosis in human ALL-5 cells assessed as increase in PARP cleavage at 43 nM incubated for 48 hrs by Western blot analysis relative to control; format: functional, cell-based
ALL5 [7] = test: Induction of apoptosis in human ALL-5 cells assessed as increase in PARP cleavage at 23 nM incubated for 48 hrs by Western blot analysis relative to control; format: functional, cell-based

SMILES | IC50 [1] | IC50 (A549) | IC50 (MCF7) | IC50 (LoVo) | IC50 (cells) | Ratio IC50 [2] | IC50 (BALB/3T3) | Activity (ALL5 [3]) | Activity (ALL5 [4]) | Activity (ALL5 [5]) | Activity (ALL5 [6]) | Activity (ALL5 [7])
CCCCCCCCCC(=O)N[C@H]1CCc2cc(OC)c(OC)c(OC)c2-c2ccc(SC)c(=O)cc21 | 27.3 nM | 13.3 nM | 66.3 nM | 7.6 nM | 84.6 nM | 11.2 | 87.2 nM | – | – | – | – | –
CCN(CC)C(=O)N[C@H]1CCc2c(I)c(OC)c(OC)c(OC)c2-c2ccc(SC)c(=O)cc21 | 81.9 nM | 81.3 nM | 94.7 nM | 64.6 nM | 794 nM | 12.3 | 107 nM | – | – | – | – | –
COCC(=O)N[C@H]1CCc2cc(OC)c(OC)c(OC)c2-c2ccc(SC)c(=O)cc21 | 8.5 nM | 13.5 nM | 12.7 nM | 8.2 nM | 132 nM | 16 | 12 nM | – | – | – | – | –
COc1c(I)c2c(c(OC)c1OC)-c1ccc(OC)c(=O)cc1[C@@H](NC(C)=O)CC2 | 15.5 nM | 93.9 nM | 97.7 nM | 10.2 nM | 2780 nM | 278 | 135 nM | – | – | – | – | –
CCC(=O)N[C@H]1CCc2c(I)c(OC)c(OC)c(OC)c2-c2ccc(SC)c(=O)cc21 | 9 nM | 11.4 nM | 10.8 nM | 7.2 nM | 168 nM | 23.3 | 39.6 nM | Active | – | – | – | –
COc1c(I)c2c(c(OC)c1OC)-c1ccc(SC)c(=O)cc1[C@@H](N)CC2 | 135 nM | 866 nM | 1700 nM | 126 nM | 844 nM | 6.7 | 1420 nM | – | – | – | – | –
COc1c(I)c2c(c(OC)c1OC)-c1ccc(SC)c(=O)cc1[C@@H](NC(=O)CCCCl)CC2 | 47.5 nM | 82.8 nM | 89.4 nM | 39.2 nM | 529 nM | 13.5 | 87.8 nM | – | – | – | – | –
COc1cccc2c1C(=O)c1c(O)c3c(c(O)c1C2=O)C[C@@](O)(C(=O)CO)C[C@@H]3O[C@H]1C[C@H](N)[C@H](O)[C@H](C)O1 [DOXORUBICIN] | – | 258 nM | – | – | 4750 nM | – | – | – | Active | – | – | –
COCC(=O)N[C@H]1CCc2c(I)c(OC)c(OC)c(OC)c2-c2ccc(SC)c(=O)cc21 | 15 nM | 10.5 nM | 10.5 nM | 7 nM | 92.2 nM | 13.2 | 51.2 nM | – | – | – | – | –
COc1cc2c(c(OC)c1OC)-c1ccc(SC)c(=O)cc1[C@@H](NC(=O)c1ccccc1)CC2 | 5.7 nM | 11.2 nM | 11.2 nM | 5.6 nM | 57.9 nM | 10.4 | 21.6 nM | – | – | – | – | –
CCCCCCCCCC(=O)N[C@H]1CCc2c(I)c(OC)c(OC)c(OC)c2-c2ccc(SC)c(=O)cc21 | 615 nM | 833 nM | 846 nM | 568 nM | 3870 nM | 6.8 | 305 nM | – | – | – | – | –
COc1c(I)c2c(c(OC)c1OC)-c1ccc(SC)c(=O)cc1[C@@H](NC(=O)C(C)C)CC2 | 19.9 nM | 62.6 nM | 44.5 nM | 7 nM | 91.3 nM | 13 | 69.7 nM | – | – | – | – | –
COc1cc2c(c(OC)c1OC)-c1ccc(SC)c(=O)cc1[C@@H](NC(=O)CCCCl)CC2 | 5.9 nM | 13.3 nM | 11.9 nM | 8.4 nM | 102 nM | 12.2 | 20.2 nM | – | – | Active | – | –
COc1c(I)c2c(c(OC)c1OC)-c1ccc(SC)c(=O)cc1[C@@H](NC(C)=O)CC2 | 8.7 nM | – | – | 7.4 nM | – | 91.7 | – | – | – | Active | – | –
CCN(CC)C(=O)N[C@H]1CCc2cc(OC)c(OC)c(OC)c2-c2ccc(SC)c(=O)cc21 | 17.4 nM | 133 nM | 113 nM | 69.1 nM | 1100 nM | 16 | 88.2 nM | – | – | – | – | –
COc1cc2c(c(OC)c1OC)-c1ccc(OC)c(=O)cc1[C@@H](NC(C)=O)CC2 [COLCHICINE] | 8.6 nM | – | – | – | – | – | 106 nM | – | – | – | Active | –
COc1cc2c(c(OC)c1OC)-c1ccc(SC)c(=O)cc1[C@@H](NC(=O)C(C)C)CC2 | 5.5 nM | 15.8 nM | 13.5 nM | 9 nM | 174 nM | 19.3 | 69.9 nM | – | – | Active | – | –
CCC(=O)N[C@H]1CCc2cc(OC)c(OC)c(OC)c2-c2ccc(SC)c(=O)cc21 | 4.6 nM | 13.2 nM | 12.4 nM | 8.5 nM | 163 nM | 19.1 | 17.9 nM | – | – | – | – | Active
COc1c(I)c2c(c(OC)c1OC)-c1ccc(SC)c(=O)cc1[C@@H](NC(=O)c1ccccc1)CC2 | 25.4 nM | 13.3 nM | 47.5 nM | 7.2 nM | 72.9 nM | 10.2 | 76.2 nM | – | – | – | – | –
